Assay results reported in ChEMBL document CHEMBL3792384, “Design, synthesis and bioactivity of novel phthalimide derivatives as acetylcholinesterase inhibitors” (Bioorg Med Chem Lett, 2016).
Activity calls are given as the source filed them. No cut-off for these calls is given here.

target: Acetylcholinesterase (Electrophorus electricus, UniProt O42275); test: Inhibition of electric eel AChE preincubated for 15 mins followed by addition of acetylthiocholine iodide substrate by Ellman's method-based spectrophotometric analysis
Sequence (O42275 whole entry): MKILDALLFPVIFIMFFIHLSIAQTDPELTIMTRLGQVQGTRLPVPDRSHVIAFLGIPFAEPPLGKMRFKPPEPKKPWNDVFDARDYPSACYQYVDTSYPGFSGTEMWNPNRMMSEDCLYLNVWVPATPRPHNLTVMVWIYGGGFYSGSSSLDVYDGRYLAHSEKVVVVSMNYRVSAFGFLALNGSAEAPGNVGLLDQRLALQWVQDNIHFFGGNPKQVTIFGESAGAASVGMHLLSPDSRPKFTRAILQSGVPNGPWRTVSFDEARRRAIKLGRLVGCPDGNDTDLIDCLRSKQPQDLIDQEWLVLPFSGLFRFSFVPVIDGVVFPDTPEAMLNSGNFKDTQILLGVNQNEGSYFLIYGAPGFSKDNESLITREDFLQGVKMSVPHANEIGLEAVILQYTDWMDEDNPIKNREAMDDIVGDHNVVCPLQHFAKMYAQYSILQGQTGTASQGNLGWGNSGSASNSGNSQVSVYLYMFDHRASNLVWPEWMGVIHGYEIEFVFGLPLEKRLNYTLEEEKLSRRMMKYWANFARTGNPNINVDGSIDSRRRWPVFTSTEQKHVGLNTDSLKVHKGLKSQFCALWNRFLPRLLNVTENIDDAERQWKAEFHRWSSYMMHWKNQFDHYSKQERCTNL

Structure (SMILES) | IC50
O=C1c2ccccc2C(=O)N1CCCCN1CCN(Cc2ccccc2)CC1 | 0.0184 µM
COc1ccc(CN2CCN(CCCCCN3C(=O)c4ccccc4C3=O)CC2)cc1 | 0.548 µM
O=C1c2ccccc2C(=O)N1CCN1CCN(Cc2ccc(Cl)cc2)CC1 | 1.1 µM
COc1ccc(CN2CCN(CCN3C(=O)c4ccccc4C3=O)CC2)cc1 | 0.466 µM
O=C1c2ccccc2C(=O)N1CCCCCCCCCCN1CCN(Cc2ccc(Cl)cc2)CC1 | 1.26 µM
O=C1c2ccccc2C(=O)N1CCCCCCCN1CCN(Cc2ccc(Cl)cc2)CC1 | 0.655 µM
O=C1c2ccccc2C(=O)N1CCCCCCCN1CCN(Cc2ccccc2)CC1 | 0.0538 µM
COc1cc2c(cc1OCCCN1CCN(c3ccccc3OC)CC1)C(C)C(C)C(=O)O2 (stereo not drawn) | 0.036 µM
O=C1c2ccccc2C(=O)N1CCCCCN1CCN(Cc2ccccc2)CC1 | 0.0354 µM
O=C1c2ccccc2C(=O)N1C/C=C/CN1CCN(Cc2ccc(Cl)cc2)CC1 | 0.384 µM
COc1ccc(CN2CCN(CCCCCCCCN3C(=O)c4ccccc4C3=O)CC2)cc1 | 0.699 µM
COc1ccc(CN2CCN(CCCCCCCCCCN3C(=O)c4ccccc4C3=O)CC2)cc1 | 0.712 µM
O=C1c2ccccc2C(=O)N1CCCCCN1CCN(Cc2ccc(Cl)cc2)CC1 | 0.72 µM
COc1ccc(CN2CCN(CCCCCCCN3C(=O)c4ccccc4C3=O)CC2)cc1 | 0.448 µM
O=C1c2ccccc2C(=O)N1CCCN1CCN(Cc2ccc(Cl)cc2)CC1 | 1.43 µM
O=C1c2ccccc2C(=O)N1CCCCN1CCN(Cc2ccc(Cl)cc2)CC1 | 1.42 µM

Structure (SMILES) | IC50
O=C1c2ccccc2C(=O)N1C/C=C/CN1CCN(Cc2ccccc2)CC1 | 0.0136 µM
COc1ccc(CN2CCN(CCCCCCN3C(=O)c4ccccc4C3=O)CC2)cc1 | 0.687 µM
O=C1c2ccccc2C(=O)N1CCCCCCCCN1CCN(Cc2ccc(Cl)cc2)CC1 | 0.44 µM
O=C1c2ccccc2C(=O)N1CCCCCCN1CCN(Cc2ccccc2)CC1 | 0.1 µM
O=C1c2ccccc2C(=O)N1CCCCCCN1CCN(Cc2ccc(Cl)cc2)CC1 | 0.389 µM
COc1ccc(CN2CCN(CCCN3C(=O)c4ccccc4C3=O)CC2)cc1 | 0.508 µM
O=C1c2ccccc2C(=O)N1CCCCCCCCCCN1CCN(Cc2ccccc2)CC1 | 0.35 µM
COc1ccc(CN2CCN(CCCCCCCCCN3C(=O)c4ccccc4C3=O)CC2)cc1 | 0.657 µM
O=C1c2ccccc2C(=O)N1CCCN1CCN(Cc2ccccc2)CC1 | 0.123 µM
COc1ccc(CN2CCN(C/C=C/CN3C(=O)c4ccccc4C3=O)CC2)cc1 | 0.489 µM
O=C1c2ccccc2C(=O)N1CCCCCCCCCN1CCN(Cc2ccc(Cl)cc2)CC1 | 0.644 µM
O=C1c2ccccc2C(=O)N1CCN1CCN(Cc2ccccc2)CC1 | 0.0911 µM
O=C1c2ccccc2C(=O)N1CCCCCCCCCN1CCN(Cc2ccccc2)CC1 | 0.0407 µM
O=C1c2ccccc2C(=O)N1CCCCCCCCN1CCN(Cc2ccccc2)CC1 | 0.204 µM
COc1ccc(CN2CCN(CCCCN3C(=O)c4ccccc4C3=O)CC2)cc1 | 0.403 µM

target: Cholinesterase (Equus caballus) (UniProt P81908); test: (§1) Inhibition of equine serum BChE using butyrylthiocholine iodide as substrate by Ellman's method-based spectrophotometric analysis
Sequence (P81908 whole entry): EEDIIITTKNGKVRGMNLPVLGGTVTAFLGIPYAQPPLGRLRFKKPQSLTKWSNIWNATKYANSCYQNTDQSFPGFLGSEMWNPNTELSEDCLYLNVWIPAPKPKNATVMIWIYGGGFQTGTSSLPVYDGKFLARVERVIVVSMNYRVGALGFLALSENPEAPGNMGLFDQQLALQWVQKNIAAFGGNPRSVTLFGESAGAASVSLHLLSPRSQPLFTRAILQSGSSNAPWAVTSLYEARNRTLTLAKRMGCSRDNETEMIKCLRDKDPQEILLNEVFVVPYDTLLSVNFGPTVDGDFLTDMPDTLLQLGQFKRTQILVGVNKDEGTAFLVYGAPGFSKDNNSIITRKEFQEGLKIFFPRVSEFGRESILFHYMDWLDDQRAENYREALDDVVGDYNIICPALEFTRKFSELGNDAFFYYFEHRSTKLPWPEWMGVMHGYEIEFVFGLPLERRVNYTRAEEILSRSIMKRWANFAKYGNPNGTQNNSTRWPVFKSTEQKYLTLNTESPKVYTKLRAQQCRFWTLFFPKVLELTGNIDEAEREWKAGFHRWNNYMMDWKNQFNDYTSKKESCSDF

Structure (SMILES) | inhibition
O=C1c2ccccc2C(=O)N1CCCCCCCCN1CCN(Cc2ccccc2)CC1 | Active

target: Cholinesterase (Equus caballus, UniProt P81908); test: as §1
Sequence (P81908 whole entry): as above

Structure (SMILES) | IC50
O=C1c2ccccc2C(=O)N1CCCCCCCCCN1CCN(Cc2ccccc2)CC1 | 0.0331 µM
